Reference: patent US11779530B2, “Composition for the permanent deformation of hair having reduced odor” (Noxell Corporation, priority 2016, dated 2023)

assay: distribution coefficient log P (octanol/water) of raw materials; assay type: physicochemical; conditions: raw material of one-component malodor suppressant system
From the text: In the fields of organic and medicinal chemistry, a distribution (P) coefficient is the ratio of concentrations of a compound in the two phases of a mixture of two immiscible solvents at equilibrium. […] One of the solvents chosen is water while the second is octanol. […] The partition coefficient is the ratio of concentrations of un-ionized compound between the two solutions. The logarithm of the ratio of the concentrations of the un-ionized solute in the solvents is called log P:
[formula] The log P (octanol/water) is referred hereinafter as “log P”, unless otherwise specified.

Row | log P (octanol/water) | Molecule
1 | 4.90 | Operanide [S4]
2 | 7.41 | CCCCCCCCCCCCCC(=O)OC(C)C [S1, isopropylmyristate]

Row | Molecule | log P (octanol/water)
3 | CC1COCc2cc3c(cc21)C(C)(C)C(C)C3(C)C (stereo not drawn) [S3, Galaxolide] | 5.93
